Source: patent US12077503B2, “Substituted cyclic amides and their use as herbicides” (FMC CORPORATION, priority 2015, dated 2024)

Tests used:
Format in all cases: in vivo
[1] = tested on: barnyardgrass (Echinochloa crus-galli); experiment: Test G Pre-Emergence Protocol; details: Echinochloa crus-galli, pre-emergence, 312 h, evaluated after 13 days; for pest or weed control at 15.625 g/ha: 15.625 g ai/ha; for pest or weed control at 15.625 g/ha / pest or weed control at 250 g/ha: read-out: Barnyardgrass damage rating (100=total damage to plant; 0=no damage to plant); for pest or weed control at 62.5 g/ha: 62.5 g ai/ha, 100=total damage to plant, 0=no damage to plant, read-out: Barnyardgrass damage rating; for pest or weed control at 250 g/ha: 250 g ai/ha
Procedure, shortened: (§1)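 Under a 24/16° C day/night regime with 14 h light and 65% humidity, sown pots were sprayed after one day with compound (15.625, 62.5 or 250 g/ha; 50:50 acetone/water, 0.5% Tween 20). Damage was assessed visually 13 days later, 0 to 100.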

[2] = tested on: redroot pigweed (Amaranthus retroflexus); experiment: Test G Pre-Emergence Protocol; details: Amaranthus retroflexus, pre-emergence, 312 h, evaluated after 13 days; for pest or weed control at 15.625 g/ha: 15.625 g ai/ha; for pest or weed control at 15.625 g/ha / pest or weed control at 250 g/ha: read-out: Pigweed, Redroot damage rating (100=total damage to plant; 0=no damage to plant); for pest or weed control at 62.5 g/ha: 62.5 g ai/ha, 100=total damage to plant, 0=no damage to plant, read-out: Pigweed, Redroot damage rating; for pest or weed control at 250 g/ha: 250 g ai/ha
Procedure, shortened: as §1

corn (Zea mays) [3] = experiment: Test G Pre-Emergence Protocol; details: Zea mays, pre-emergence, 312 h, evaluated after 13 days; for plant injury at 15.625 g/ha: 15.625 g ai/ha; for plant injury at 15.625 g/ha / plant injury at 250 g/ha: read-out: Corn damage rating (100=total damage to plant; 0=no damage to plant); for plant injury at 62.5 g/ha: 62.5 g ai/ha, 100=total damage to plant, 0=no damage to plant, read-out: Corn damage rating; for plant injury at 250 g/ha: 250 g ai/ha
Procedure, shortened: as §1

[4] = tested on: giant foxtail (Setaria faberi); experiment: Test G Pre-Emergence Protocol; details: Setaria faberi, pre-emergence, 312 h, evaluated after 13 days; for pest or weed control at 15.625 g/ha: 15.625 g ai/ha; for pest or weed control at 15.625 g/ha / pest or weed control at 250 g/ha: read-out: Foxtail, Giant damage rating (100=total damage to plant; 0=no damage to plant); for pest or weed control at 62.5 g/ha: 62.5 g ai/ha, 100=total damage to plant, 0=no damage to plant, read-out: Foxtail, Giant damage rating; for pest or weed control at 250 g/ha: 250 g ai/ha
Procedure, shortened: as §1

[5] = tested on: velvetleaf (Abutilon theophrasti); experiment: Test G Pre-Emergence Protocol; details: Abutilon theophrasti, pre-emergence, 312 h, evaluated after 13 days; for pest or weed control at 15.625 g/ha: 15.625 g ai/ha; for pest or weed control at 15.625 g/ha / pest or weed control at 250 g/ha: read-out: Velvetleaf damage rating (100=total damage to plant; 0=no damage to plant); for pest or weed control at 62.5 g/ha: 62.5 g ai/ha, 100=total damage to plant, 0=no damage to plant, read-out: Velvetleaf damage rating; for pest or weed control at 250 g/ha: 250 g ai/ha
Procedure, shortened: as §1

[6] = tested on: ivy-leaved morning glory (Ipomoea hederacea); experiment: Test G Pre-Emergence Protocol; details: Ipomoea, pre-emergence, 312 h, evaluated after 13 days; for pest or weed control at 15.625 g/ha: 15.625 g ai/ha; for pest or weed control at 15.625 g/ha / pest or weed control at 250 g/ha: read-out: Morningglory, Ivy-leaved damage rating (100=total damage to plant; 0=no damage to plant); for pest or weed control at 62.5 g/ha: 62.5 g ai/ha, 100=total damage to plant, 0=no damage to plant, read-out: Morningglory, Ivy-leaved damage rating; for pest or weed control at 250 g/ha: 250 g ai/ha
Procedure, shortened: as §1

[7] = tested on: barnyardgrass (Echinochloa crus-galli); experiment: Test G Post-Emergence Protocol; details: Echinochloa crus-galli, post-emergence, 312 h, read-out: Barnyardgrass damage rating; for pest or weed control at 15.625 g/ha: 15.625 g ai/ha, evaluated after 13 days (100=total damage to plant; 0=no damage to plant); for pest or weed control at 62.5 g/ha: 62.5 g ai/ha; for pest or weed control at 62.5 g/ha / pest or weed control at 250 g/ha: evaluated after 13 days, 100=total damage to plant, 0=no damage to plant; for pest or weed control at 250 g/ha: 250 g ai/ha
Procedure, shortened: (§2)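 Pot-grown seedlings, 8 days old, raised in a glasshouse at 24/16 °C day/night with 14 h light and 65% humidity, were sprayed post-emergence with test compound in acetone/water (50:50) plus 0.5% Tween 20 at 15.625, 62.5 or 250 g/ha. Damage was scored visually 13 days later on a 0–100 scale (100 = total damage).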

[8] = tested on: redroot pigweed (Amaranthus retroflexus); experiment: Test G Post-Emergence Protocol; details: Amaranthus retroflexus, post-emergence, 312 h, read-out: Pigweed, Redroot damage rating; for pest or weed control at 15.625 g/ha: 15.625 g ai/ha, evaluated after 13 days (100=total damage to plant; 0=no damage to plant); for pest or weed control at 62.5 g/ha: 62.5 g ai/ha; for pest or weed control at 62.5 g/ha / pest or weed control at 250 g/ha: evaluated after 13 days, 100=total damage to plant, 0=no damage to plant; for pest or weed control at 250 g/ha: 250 g ai/ha
Procedure, shortened: as §2

corn (Zea mays) [9] = experiment: Test G Post-Emergence Protocol; details: Zea mays, post-emergence, 312 h, read-out: Corn damage rating; for plant injury at 15.625 g/ha: 15.625 g ai/ha, evaluated after 13 days (100=total damage to plant; 0=no damage to plant); for plant injury at 62.5 g/ha: 62.5 g ai/ha; for plant injury at 62.5 g/ha / plant injury at 250 g/ha: evaluated after 13 days, 100=total damage to plant, 0=no damage to plant; for plant injury at 250 g/ha: 250 g ai/ha
Procedure, shortened: as §2

[10] = tested on: giant foxtail (Setaria faberi); experiment: Test G Post-Emergence Protocol; details: Setaria faberi, post-emergence, 312 h, read-out: Foxtail, Giant damage rating; for pest or weed control at 15.625 g/ha: 15.625 g ai/ha, evaluated after 13 days (100=total damage to plant; 0=no damage to plant); for pest or weed control at 62.5 g/ha: 62.5 g ai/ha; for pest or weed control at 62.5 g/ha / pest or weed control at 250 g/ha: evaluated after 13 days, 100=total damage to plant, 0=no damage to plant; for pest or weed control at 250 g/ha: 250 g ai/ha
Procedure, shortened: as §2

[11] = tested on: velvetleaf (Abutilon theophrasti); experiment: Test G Post-Emergence Protocol; details: Abutilon theophrasti, post-emergence, 312 h, read-out: Velvetleaf damage rating; for pest or weed control at 15.625 g/ha: 15.625 g ai/ha, evaluated after 13 days (100=total damage to plant; 0=no damage to plant); for pest or weed control at 62.5 g/ha: 62.5 g ai/ha; for pest or weed control at 62.5 g/ha / pest or weed control at 250 g/ha: evaluated after 13 days, 100=total damage to plant, 0=no damage to plant; for pest or weed control at 250 g/ha: 250 g ai/ha
Procedure, shortened: as §2

[12] = tested on: ivy-leaved morning glory (Ipomoea hederacea); experiment: Test G Post-Emergence Protocol; details: Ipomoea, post-emergence, 312 h, read-out: Morningglory, Ivy-leaved damage rating; for pest or weed control at 15.625 g/ha: 15.625 g ai/ha, evaluated after 13 days (100=total damage to plant; 0=no damage to plant); for pest or weed control at 62.5 g/ha: 62.5 g ai/ha; for pest or weed control at 62.5 g/ha / pest or weed control at 250 g/ha: evaluated after 13 days, 100=total damage to plant, 0=no damage to plant; for pest or weed control at 250 g/ha: 250 g ai/ha
Procedure, shortened: as §2

| SMILES | pest or weed control at 15.625 g/ha [1] [%] | pest or weed control at 62.5 g/ha [1] [%] | pest or weed control at 250 g/ha [1] [%] | pest or weed control at 15.625 g/ha [2] [%] | pest or weed control at 62.5 g/ha [2] [%] | pest or weed control at 250 g/ha [2] [%] | plant injury at 15.625 g/ha (corn (Zea mays) [3]) [%] | plant injury at 62.5 g/ha (corn (Zea mays) [3]) [%] | plant injury at 250 g/ha (corn (Zea mays) [3]) [%] | pest or weed control at 15.625 g/ha [4] [%] | pest or weed control at 62.5 g/ha [4] [%] | pest or weed control at 250 g/ha [4] [%] | pest or weed control at 15.625 g/ha [5] [%] | pest or weed control at 62.5 g/ha [5] [%] | pest or weed control at 250 g/ha [5] [%] | pest or weed control at 15.625 g/ha [6] [%] | pest or weed control at 62.5 g/ha [6] [%] | pest or weed control at 250 g/ha [6] [%] | pest or weed control at 15.625 g/ha [7] [%] | pest or weed control at 62.5 g/ha [7] [%] | further results |
| --- | --- | --- | --- | --- | --- | --- | --- | --- | --- | --- | --- | --- | --- | --- | --- | --- | --- | --- | --- | --- | --- |
| CCOc1cc(C2CN(C)C(=O)C2C(=O)Nc2cccc(F)c2F)ccc1Cl (stereo not drawn) [Compound 1686] | 40 | 70 | 70 | 0 | 0 | 60 | 10 | 20 | 50 | 60 | 70 | 90 | 0 | 0 | 40 | 0 | 20 | 60 | 30 | 70 | pest or weed control at 250 g/ha [7]: 80%; pest or weed control at 15.625 g/ha [8]: 30%; pest or weed control at 62.5 g/ha [8]: 20%; pest or weed control at 250 g/ha [8]: 40%; plant injury at 15.625 g/ha (corn (Zea mays) [9]): 0%; plant injury at 62.5 g/ha (corn (Zea mays) [9]): 10%; plant injury at 250 g/ha (corn (Zea mays) [9]): 60%; pest or weed control at 15.625 g/ha [10]: 60%; pest or weed control at 62.5 g/ha [10]: 70%; pest or weed control at 250 g/ha [10]: 80%; pest or weed control at 15.625 g/ha [11]: 30%; pest or weed control at 62.5 g/ha [11]: 20%; pest or weed control at 250 g/ha [11]: 40%; pest or weed control at 15.625 g/ha [12]: 20%; pest or weed control at 62.5 g/ha [12]: 20%; pest or weed control at 250 g/ha [12]: 70% |
| CCOc1cc(C)cc(C2CN(C)C(=O)C2C(=O)Nc2cccc(F)c2F)c1 (stereo not drawn) [Compound 1692] | 20 | 70 | 80 | 0 | 10 | 10 | 0 | 60 | 80 | 60 | 80 | 90 | 0 | 0 | 20 | 0 | 0 | 30 | 40 | 70 | pest or weed control at 250 g/ha [7]: 80%; pest or weed control at 15.625 g/ha [8]: 0%; pest or weed control at 62.5 g/ha [8]: 40%; pest or weed control at 250 g/ha [8]: 40%; plant injury at 15.625 g/ha (corn (Zea mays) [9]): 20%; plant injury at 62.5 g/ha (corn (Zea mays) [9]): 50%; plant injury at 250 g/ha (corn (Zea mays) [9]): 80%; pest or weed control at 15.625 g/ha [10]: 60%; pest or weed control at 62.5 g/ha [10]: 80%; pest or weed control at 250 g/ha [10]: 80%; pest or weed control at 15.625 g/ha [11]: 0%; pest or weed control at 62.5 g/ha [11]: 20%; pest or weed control at 250 g/ha [11]: 30%; pest or weed control at 15.625 g/ha [12]: 40%; pest or weed control at 62.5 g/ha [12]: 30%; pest or weed control at 250 g/ha [12]: 70% |
| CCCOc1cc(OC(F)(F)F)cc(C2CN(C)C(=O)C2C(=O)Nc2cccc(F)c2F)c1 (stereo not drawn) [Compound 1693] | 0 | 70 | 70 | 0 | 0 | 10 | 0 | 30 | 40 | 0 | 50 | 70 | 0 | 0 | 10 | 0 | 20 | 20 | 0 | 30 | pest or weed control at 250 g/ha [7]: 80%; pest or weed control at 15.625 g/ha [8]: 20%; pest or weed control at 62.5 g/ha [8]: 50%; pest or weed control at 250 g/ha [8]: 60%; plant injury at 15.625 g/ha (corn (Zea mays) [9]): 0%; plant injury at 62.5 g/ha (corn (Zea mays) [9]): 10%; plant injury at 250 g/ha (corn (Zea mays) [9]): 70%; pest or weed control at 15.625 g/ha [10]: 0%; pest or weed control at 62.5 g/ha [10]: 60%; pest or weed control at 250 g/ha [10]: 80%; pest or weed control at 15.625 g/ha [11]: 0%; pest or weed control at 62.5 g/ha [11]: 30%; pest or weed control at 250 g/ha [11]: 20%; pest or weed control at 15.625 g/ha [12]: 0%; pest or weed control at 62.5 g/ha [12]: 50%; pest or weed control at 250 g/ha [12]: 60% |
